Assay results as given in ChEMBL document CHEMBL1806420, “Design, synthesis and antimycobacterial evaluation of novel 3-substituted-N-aryl-6,7-dimethoxy-3a,4-dihydro-3H-indeno[1,2-c]pyrazole-2-carboxamide analogues” (Bioorg Med Chem Lett, 2011).
In brackets after ≈: the same amount, converted by molar mass.

Key:
[1] = tested on: Mycobacterium tuberculosis; test: Antimycobacterial activity against isoniazid-resistant Mycobacterium tuberculosis by agar dilution method; format: functional
[2] = tested on: Mycobacterium tuberculosis; test: Ratio of isoniazid MIC to compound MIC for isoniazid-resistant Mycobacterium tuberculosis; format: functional

SMILES	MIC [1] [µM]	Ratio [2]
COc1cc2c(cc1OC)C1=NN(C(=O)Nc3ccc(Br)cc3)C(c3ccccc3Cl)C1C2 (centres undefined)	10 (≈ 5.27 µg/mL)	–
CO[C@H]1/C=C/O[C@@]2(C)Oc3c(C)c(O)c4c(O)c(c(/C=N/N5CCN(C)CC5)c(O)c4c3C2=O)NC(=O)/C(C)=C\C=C\[C@H](C)[C@H](O)[C@@H](C)[C@@H](O)[C@@H](C)[C@H](OC(C)=O)[C@@H]1C [RIFAMPIN]	3.12 (≈ 2.57 µg/mL)	–
COc1cc2c(cc1OC)C1=NN(C(=O)Nc3ccc(F)cc3)C(c3ccccc3)C1C2 (centres undefined)	10 (≈ 4.31 µg/mL)	–
COc1cc2c(cc1OC)C1=NN(C(=O)Nc3ccc(Br)cc3)C(c3ccncc3)C1C2 (centres undefined)	10 (≈ 4.93 µg/mL)	–
COc1cc2c(cc1OC)C1=NN(C(=O)Nc3ccc(F)c(Cl)c3)C(c3ccncc3)C1C2 (centres undefined)	10 (≈ 4.67 µg/mL)	–
NNC(=O)c1ccncc1 [ISONIAZID]	12.5 (≈ 1.71 µg/mL)	–
COc1ccc(C2C3Cc4cc(OC)c(OC)cc4C3=NN2C(=O)Nc2ccc(F)c(Cl)c2)cc1 (centres undefined)	12.5 (≈ 6.2 µg/mL)	–
COc1ccc(C2C3Cc4cc(OC)c(OC)cc4C3=NN2C(=O)Nc2ccc(F)c(Cl)c2)cc1OC (centres undefined)	12.5 (≈ 6.57 µg/mL)	–
COc1cc2c(cc1OC)C1=NN(C(=O)Nc3ccc(F)cc3)C(c3ccncc3)C1C2 (centres undefined)	6.25 (≈ 2.7 µg/mL)	–
COc1cc2c(cc1OC)C1=NN(C(=O)Nc3ccc(F)c(Cl)c3)C(c3ccc(F)cc3)C1C2 (centres undefined)	3.12 (≈ 1.51 µg/mL)	4
COc1cc2c(cc1OC)C1=NN(C(=O)Nc3ccc(F)c(Cl)c3)C(c3ccccc3)C1C2 (centres undefined)	12.5 (≈ 5.82 µg/mL)	–
COc1cc2c(cc1OC)C1=NN(C(=O)Nc3ccc(Br)cc3)C(c3ccc(F)cc3)C1C2 (centres undefined)	6.25 (≈ 3.19 µg/mL)	–
COc1cc2c(cc1OC)C1=NN(C(=O)Nc3ccc(F)cc3)C(c3ccccc3Cl)C1C2 (centres undefined)	12.5 (≈ 5.82 µg/mL)	–
COc1cc2c(cc1OC)C1=NN(C(=O)Nc3ccc(Br)cc3)C(c3ccccc3)C1C2 (centres undefined)	> 10	–
COc1cc2c(cc1OC)C1=NN(C(=O)Nc3ccc(F)c(Cl)c3)C(c3ccccc3Cl)C1C2 (centres undefined)	12.5 (≈ 6.25 µg/mL)	–
COc1ccc(C2C3Cc4cc(OC)c(OC)cc4C3=NN2C(=O)Nc2ccc(F)cc2)cc1 (centres undefined)	12.5 (≈ 5.77 µg/mL)	–
COc1cc2c(cc1OC)C1=NN(C(=O)Nc3ccc(F)cc3)C(c3ccc(F)cc3)C1C2 (centres undefined)	0.78 (≈ 0.351 µg/mL)	16
